Laboratory results: ChEMBL document CHEMBL3585344, “Thiazole-based aminopyrimidines and N-phenylpyrazolines as potent antimicrobial agents: synthesis and biological evaluation” (2014)
≈ marks a conversion by molar mass, not a printed value.

Assays:
Staphylococcus aureus [1] = assay: Antibacterial activity against Staphylococcus aureus ATCC 6538 after 24 hrs by microdilution method; type: functional; settings: ATCC 6538, 24 h
Bacillus cereus [2] = assay: Antibacterial activity against Bacillus cereus clinical isolate after 24 hrs by microdilution method; type: functional
Micrococcus flavus [3] = assay: Antibacterial activity against Micrococcus flavus ATCC 10240 after 24 hrs by microdilution method; type: functional; settings: ATCC 10240, 24 h
Listeria monocytogenes [4] = assay: Antibacterial activity against Listeria monocytogenes NCTC 7973 after 24 hrs by microdilution method; type: functional; settings: NCTC 7973, 24 h
Staphylococcus aureus [5] = assay: Bactericidal activity against Staphylococcus aureus ATCC 6538 after 72 hrs by microdilution method; type: functional
Bacillus cereus [6] = assay: Bactericidal activity against Bacillus cereus clinical isolate after 72 hrs by microdilution method; type: functional
Micrococcus flavus [7] = assay: Bactericidal activity against Micrococcus flavus ATCC 10240 after 72 hrs by microdilution method; type: functional
Listeria monocytogenes [8] = assay: Bactericidal activity against Listeria monocytogenes NCTC 7973 after 72 hrs by microdilution method; type: functional
Pseudomonas aeruginosa [9] = assay: Antibacterial activity against Pseudomonas aeruginosa ATCC 27853 after 24 hrs by microdilution method; type: functional; settings: ATCC 27853, 24 h
Salmonella typhimurium [10] = assay: Antibacterial activity against Salmonella typhimurium ATCC 13311 after 24 hrs by microdilution method; type: functional, Salmonella enterica subsp. enterica serovar Typhimurium; settings: Salmonella enterica, ATCC 13311, 24 h
Escherichia coli [11] = assay: Antibacterial activity against Escherichia coli ATCC 35210 after 24 hrs by microdilution method; type: functional; settings: ATCC 35210, 24 h
Enterobacter cloacae [12] = assay: Antibacterial activity against Enterobacter cloacae ATCC 35030 isolated from human after 24 hrs by microdilution method; type: functional; settings: ATCC 35030, 24 h
Pseudomonas aeruginosa [13] = assay: Bactericidal activity against Pseudomonas aeruginosa ATCC 27853 after 72 hrs by microdilution method; type: functional
Salmonella typhimurium [14] = assay: Bactericidal activity against Salmonella typhimurium ATCC 13311 after 72 hrs by microdilution method; type: functional, Salmonella enterica subsp. enterica serovar Typhimurium
Escherichia coli [15] = assay: Bactericidal activity against Escherichia coli ATCC 35210 after 72 hrs by microdilution method; type: functional
Enterobacter cloacae [16] = assay: Bactericidal activity against Enterobacter cloacae ATCC 35030 isolated from human after 72 hrs by microdilution method; type: functional
Aspergillus ochraceus [17] = assay: Antifungal activity against Aspergillus ochraceus ATCC 12066 after 72 hrs by microdilution method; type: functional; settings: ATCC 12066, 72 h
Aspergillus versicolor [18] = assay: Antifungal activity against Aspergillus versicolor ATCC 11730 after 72 hrs by microdilution method; type: functional; settings: ATCC 11730, 72 h
Aspergillus niger [19] = assay: Antifungal activity against Aspergillus niger ATCC 6275 after 72 hrs by microdilution method; type: functional; settings: ATCC 6275, 72 h
Aspergillus fumigatus [20] = assay: Antifungal activity against Aspergillus fumigatus isolated from human after 72 hrs by microdilution method; type: functional
Aspergillus ochraceus [21] = assay: Fungicidal activity against Aspergillus ochraceus ATCC 12066 after 72 hrs by microdilution method; type: functional
Aspergillus versicolor [22] = assay: Fungicidal activity against Aspergillus versicolor ATCC 11730 after 72 hrs by microdilution method; type: functional
Aspergillus niger [23] = assay: Fungicidal activity against Aspergillus niger ATCC 6275 after 72 hrs by microdilution method; type: functional
Aspergillus fumigatus [24] = assay: Fungicidal activity against Aspergillus fumigatus isolated from human after 72 hrs by microdilution method; type: functional
Trichoderma viride [25] = assay: Antifungal activity against Trichoderma viride IAM 5061 after 72 hrs by microdilution method; type: functional; settings: IAM 5061, 72 h
Penicillium ochrochloron [26] = assay: Antifungal activity against Penicillium ochrochloron ATCC 9112 after 72 hrs by microdilution method; type: functional; settings: ATCC 9112, 72 h
Talaromyces funiculosus [27] = assay: Antifungal activity against Penicillium funiculosum ATCC 36839 after 72 hrs by microdilution method; type: functional; settings: ATCC 36839, 72 h
Candida albicans [28] = assay: Antifungal activity against Candida albicans ATCC 10231 isolated from human after 72 hrs by microdilution method; type: functional; settings: ATCC 10231, 72 h
Trichoderma viride [29] = assay: Fungicidal activity against Trichoderma viride IAM 5061 after 72 hrs by microdilution method; type: functional
Penicillium ochrochloron [30] = assay: Fungicidal activity against Penicillium ochrochloron ATCC 9112 after 72 hrs by microdilution method; type: functional
Talaromyces funiculosus [31] = assay: Fungicidal activity against Penicillium funiculosum ATCC 36839 after 72 hrs by microdilution method; type: functional
Candida albicans [32] = assay: Fungicidal activity against Candida albicans ATCC 10231 isolated from human after 72 hrs by microdilution method; type: functional
Aspergillus flavus [33] = assay: Antifungal activity against Aspergillus flavus ATCC 9643 after 72 hrs by microdilution method; type: functional; settings: ATCC 9643, 72 h
Aspergillus flavus [34] = assay: Fungicidal activity against Aspergillus flavus ATCC 9643 after 72 hrs by microdilution method; type: functional

MIC (Staphylococcus aureus [1]) [µM]	MIC (Bacillus cereus [2]) [µM]	Structure (SMILES)	MIC (Aspergillus ochraceus [17]) [µM]	MIC (Aspergillus versicolor [18]) [µM]	MIC (Aspergillus niger [19]) [µM]	MIC (Aspergillus fumigatus [20]) [µM]	MFC99.5 (Aspergillus ochraceus [21]) [×10⁻² umol/ml]	MFC99.5 (Aspergillus versicolor [22]) [×10⁻² umol/ml]	MFC99.5 (Aspergillus niger [23]) [×10⁻² umol/ml]	MFC99.5 (Aspergillus fumigatus [24]) [×10⁻² umol/ml]	MIC (Trichoderma viride [25]) [µM]	MIC (Penicillium ochrochloron [26]) [µM]	MIC (Talaromyces funiculosus [27]) [µM]	MIC (Candida albicans [28]) [µM]	MFC99.5 (Trichoderma viride [29]) [×10⁻² umol/ml]	MFC99.5 (Penicillium ochrochloron [30]) [×10⁻² umol/ml]	MFC99.5 (Talaromyces funiculosus [31]) [×10⁻² umol/ml]	MFC99.5 (Candida albicans [32]) [×10⁻² umol/ml]	MIC (Aspergillus flavus [33]) [µM]	MFC99.5 (Aspergillus flavus [34]) [×10⁻² umol/ml]	further results
115 (≈ 40.1 µg/mL)	230 (≈ 80.1 µg/mL)	CNc1nc(C)c(C2=NN(c3ccccc3)C(c3ccccc3)C2)s1 (stereo not given)	143 (≈ 49.8 µg/mL)	143 (≈ 49.8 µg/mL)	143 (≈ 49.8 µg/mL)	143 (≈ 49.8 µg/mL)	17.2	23	28.7	23	287 (≈ 100 µg/mL)	143 (≈ 49.8 µg/mL)	287 (≈ 100 µg/mL)	172 (≈ 59.9 µg/mL)	40.2	28.7	40.2	23			MIC (Micrococcus flavus [3]): 115 µM (≈ 40.1 µg/mL); MIC (Listeria monocytogenes [4]): 57 µM (≈ 19.9 µg/mL); MBC99.5 (Staphylococcus aureus [5]): 20.1 ×10⁻² umol/ml; MBC99.5 (Bacillus cereus [6]): 28.7 ×10⁻² umol/ml; MBC99.5 (Micrococcus flavus [7]): 23 ×10⁻² umol/ml; MBC99.5 (Listeria monocytogenes [8]): 11.5 ×10⁻² umol/ml; MIC (Pseudomonas aeruginosa [9]): 144 µM (≈ 50.2 µg/mL); MIC (Salmonella typhimurium [10]): 172 µM (≈ 59.9 µg/mL); MIC (Escherichia coli [11]): 172 µM (≈ 59.9 µg/mL); MIC (Enterobacter cloacae [12]): 144 µM (≈ 50.2 µg/mL); MBC99.5 (Pseudomonas aeruginosa [13]): 45.9 ×10⁻² umol/ml; MBC99.5 (Salmonella typhimurium [14]): 28.7 ×10⁻² umol/ml; MBC99.5 (Escherichia coli [15]): 20.1 ×10⁻² umol/ml; MBC99.5 (Enterobacter cloacae [16]): 20.1 ×10⁻² umol/ml
		CC(=O)N1CCN(c2ccc(OCC3COC(Cn4ccnc4)(c4ccc(Cl)cc4Cl)O3)cc2)CC1 (stereo not given) [KETOCONAZOLE]	380 (≈ 202 µg/mL)	2850 (≈ 1510 µg/mL)	380 (≈ 202 µg/mL)	380 (≈ 202 µg/mL)	95	380	95	95	4750 (≈ 2520 µg/mL)	3800 (≈ 2020 µg/mL)	380 (≈ 202 µg/mL)	376 (≈ 200 µg/mL)	570	380	95	94	2850 (≈ 1510 µg/mL)	380	
		c1ccc(-c2ccc(C(c3ccccc3)n3ccnc3)cc2)cc1 (stereo not given) [BIFONAZOLE]	480 (≈ 149 µg/mL)	480 (≈ 149 µg/mL)	480 (≈ 149 µg/mL)	480 (≈ 149 µg/mL)	80	64	64	64	640 (≈ 199 µg/mL)	480 (≈ 149 µg/mL)	640 (≈ 199 µg/mL)	322 (≈ 99.9 µg/mL)	80	64	80	48.3	480 (≈ 149 µg/mL)	64	
84.1 (≈ 25 µg/mL)	33.7 (≈ 10 µg/mL)	CNc1nc(C)c(-c2cc(-c3ccccc3)nc(N)n2)s1	33.7 (≈ 10 µg/mL)		50.5 (≈ 15 µg/mL)	50.5 (≈ 15 µg/mL)	6.74		6.74	6.74	25.2 (≈ 7.49 µg/mL)	33.7 (≈ 10 µg/mL)	33.7 (≈ 10 µg/mL)	33.7 (≈ 10 µg/mL)	3.37	5.05	6.74	6.74	50.5 (≈ 15 µg/mL)	6.74	MIC (Micrococcus flavus [3]): 33.7 µM (≈ 10 µg/mL); MIC (Listeria monocytogenes [4]): 101 µM (≈ 30 µg/mL); MBC99.5 (Staphylococcus aureus [5]): 10.1 ×10⁻² umol/ml; MBC99.5 (Bacillus cereus [6]): 6.74 ×10⁻² umol/ml; MBC99.5 (Micrococcus flavus [7]): 8.41 ×10⁻² umol/ml; MBC99.5 (Listeria monocytogenes [8]): 11.81 ×10⁻² umol/ml; MIC (Pseudomonas aeruginosa [9]): 33.7 µM (≈ 10 µg/mL); MIC (Salmonella typhimurium [10]): 33.7 µM (≈ 10 µg/mL); MIC (Escherichia coli [11]): 33.7 µM (≈ 10 µg/mL); MIC (Enterobacter cloacae [12]): 67.4 µM (≈ 20 µg/mL); MBC99.5 (Pseudomonas aeruginosa [13]): 6.74 ×10⁻² umol/ml; MBC99.5 (Salmonella typhimurium [14]): 6.74 ×10⁻² umol/ml; MBC99.5 (Escherichia coli [15]): 6.74 ×10⁻² umol/ml; MBC99.5 (Enterobacter cloacae [16]): 8.41 ×10⁻² umol/ml
